The source of these data is article PMC7948405, “Small-molecule control of neurotransmitter sulfonation” (The Journal of Biological Chemistry, 2020).

The target of test [1] is T1, SULT1A3 (Homo sapiens, UniProt P0DMM9).
T1 construct: E. coli–optimized SULT coding regions were inserted into a pGEX-6P expression vector; N-His/GST/MBP triple tag (PreScission-cleavable) (N, cleaved yes); made in house; host or cells: E. coli BL21(DE3)
Put plainly: Equilibrium binding of CMP13 to SULT1A3 complexes (intrinsic fluorescence). An excerpt:
(§1) Figure 4 The inhibition mechanism. A, equilibrium binding. Binding was monitored via ligand-induced changes in SULT1A3 intrinsic fluorescence (λex = 290 nm, λem = 335 nm). […] Each dot represents the average of three independent titrations. Lines passing through the data represent the outcomes predicted by least-squares fitting of the averaged data to a single-binding-site model. B, representative PAP-binding reaction. PAP binding was monitored using a stopped-flow fluorimeter (λex = 290 nm, λem ≥ 330 nm (cutoff filter)). Reactions were initiated by rapidly mixing (1:1 v/v) a solution containing SULT1A3 (30 nM, dimer), CMP13 (1.0 μM, 100 × Kd), Tam (160 μM, 200 × Kd), KPO4 (50 mM), pH 7.5, 25(±2) °C, with a solution that was identical except that it lacked SULT1A3 and contained PAP (2.0 μM). The average of five independent progress curves shown and the kobs was obtained by fitting the data to a single exponential. C, pre–steady-state binding. PAP binding was monitored as described for panel B. Reactions were initiated by mixing (1:1 v/v) a solution containing SULT1A3 (30 nM, dimer), CMP13 [0 μM (black dots) or 1.0 μM, 100 × Kd (red and blue dots)], Tam [0 μM (black and blue dots) or 160 μM, 200 × Kd (red dots)], KPO4 (50 mM), pH 7.5, 25(±2) °C, with a solution that was identical except that it lacked SULT1A3 and contained PAP at twice the indicated concentrations. Each kobs value was determined in triplicate, and the averaged values are shown. kon and koff are given, respectively, by the slopes and intercepts obtained from linear least-squares fitting of the kobs vs [PAP] plot. PAP, 3′-phosphoadenosine-5′-phosphate; SULT1A3, sulfotransferase 1A3; Tam, 4-hydroxy-tamoxifen.
CMP13 binding to SULT1A3 was monitored via binding-induced changes in SULT1A3 intrinsic fluorescence (λex= 290 nm, λem= 335 nm ([17])). […] PAP binding was determined using the same protocol except that [PAP] was varied and CMP13 was 1.0 μM (100 × Ki). Titrations were performed in triplicate. Data were averaged and least-squares fit using a model that assumes a single binding site per monomer.

Test [2] deals with T1, SULT1A3. Put plainly: Pre-steady-state (stopped-flow fluorescence) binding of PAP to SULT1A3 complexes. Particulars: E·CMP13 vs E.
Source text: as §1
To resolve this uncertainty, PAP on- and off-rate constants for a series of open and closed complexes were determined using stopped-flow fluorescence. A representative binding reaction can be seen in Fig. 4B. The binding reactions were pseudo-first order in [PAP], and kobs values were obtained by fitting reaction progress curves to a single-exponential equation. On- and off-rate constants (see Table 3) are given by the plot slopes and intercepts.
Pre–steady-state binding of PAP to SULT1A3 was monitored via ligand-induced changes in SULT1A3 fluorescence using an Applied Photophysics SX20 stopped-flow spectrofluorometer. Fluorescence was measured at λex = 290 nm and λem ≥ 330 nm (using a cutoff filter). […] All reactions were pseudo first order with respect to [PAP]. kobs values, determined in triplicate at each PAP concentration, were obtained by least-squares fitting the average of five progress curves to a single-exponential equation. kon and koff, obtained by linear least-squares fitting, are given by the slopes and intercepts of four-point kobs-vs-[PAP] plots.

The structures appear in SMILES notation.

T1 sequence (P0DMM9 whole entry): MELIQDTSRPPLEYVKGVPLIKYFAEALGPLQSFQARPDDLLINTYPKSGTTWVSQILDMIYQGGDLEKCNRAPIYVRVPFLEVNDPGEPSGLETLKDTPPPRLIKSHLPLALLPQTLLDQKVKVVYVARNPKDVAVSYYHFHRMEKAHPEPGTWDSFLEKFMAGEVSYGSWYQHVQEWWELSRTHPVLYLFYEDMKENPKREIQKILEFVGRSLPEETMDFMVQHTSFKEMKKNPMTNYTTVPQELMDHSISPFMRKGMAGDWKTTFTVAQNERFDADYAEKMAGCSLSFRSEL

Consider `CC(C)Cc1ccc2cc(/C=C/C(N)=O)cnc2n1` [CMP13], for which the Kd at SULT1A3 [1] (complex E (unliganded, cap-open)) is 130 nM; at SULT1A3 [1] (complex E·PAP (cap-closed), PAP 350 μM) it was 11 nM; on SULT1A3 [1] (complex E·PAP·Tam (cap held open), PAP 350 μM, Tam 160 μM), 133 nM. At SULT1A3 [1] (ratio of Kd values), the “fold tighter binding to cap-closed E·PAP than to open form E” value is listed as 12 fold. In addition, at SULT1A3 [2], the “fold decrease of the PAP off-rate constant caused by inhibitor” value was about 14 fold.

The term Kd denotes a measure of binding affinity in units of concentration. High values mean a looser complex, low ones a tighter complex.
